{"source": "patent US12479894B2", "about": "“Pea peptide with auxiliary hypoglycemic function and preparation method thereof” (CHINA NATIONAL RESEARCH INSTITUTE OF FOOD & FERMENTATION …, priority 2019, dated 2025)", "type_in_all_cases": "in vivo", "key": {"[1]": {"system": "Kunming mice", "experiment": "Detection of glucose tolerance level (oral glucose 2 g/kg) in high-fat diet / streptozotocin diabetic mice", "details": "FIG. 13; last day, glucose 2 g/kg by gavage 60 min after treatment; AUC 0-120 min; pea peptides 1,600 mg/kg BW, metformin 185 mg/kg BW; versus model group", "description": "(§1) Hypoglycemic functions of the pea peptide samples were evaluated by using the following method.\n(§2) 110 Kunming mice were weighed and randomly divided into 11 groups in total: a blank group, a model group, a positive group (metformin 185 mg/kg BW), Example 1-low dose (800 mg/kg BW), Example 1-medium dose (1600 mg/kg BW), Example 1-high dose (3,200 mg/kg BW), Example 2 (1,600 mg/kg BW), Example 3 (1,600 mg/kg BW), Comparative Example 1 (,1600 mg/kg BW), Comparative Example 2 (1,600 mg/kg BW), and Comparative Example 3 (1,600 mg/kg BW), with 10 mice for each group. No any treatment was performed on the blank group; the remaining 10 groups were fed with high-fat diet for 30 days, and then intraperitoneally injected with streptozotocin to induce diabetes, for modeling; except for the blank group and the model group, the positive group was gavaged with metformin, and the experimental group was gavaged with corresponding pea peptide, the gavage was successively performed for 28 days, and the following indicators were detected:\nb. Detection of Glucose Tolerance Level […]"}, "[2]": {"system": "Kunming mice", "experiment": "Detection of serum insulin level in high-fat diet / streptozotocin diabetic mice", "details": "FIG. 15, last day after 28 days gavage, pea peptides 1,600 mg/kg BW, metformin 185 mg/kg BW, versus model group", "description": "as §1, §2\nc. Detection of Insulin Level\nOn the last day of the experiment, all mice were killed, blood samples were collected and centrifuged to obtain serum, serum insulin concentrations (μg/L) were detected, and serum insulin concentration was calculated for each group based on the average value of 10 data."}, "[3]": {"system": "Kunming mice", "experiment": "Detection of fasting blood glucose level in high-fat diet / streptozotocin diabetic mice", "details": "FIG. 11; gavage 28 days; pea peptides 1,600 mg/kg BW, metformin 185 mg/kg BW; AUC of days 1, 7, 14, 21, 28; versus model group", "description": "as §1, §2\na. Detection of Fasting Blood Glucose Level\nAfter modeling, blood samples were collected from tail tips of 11 groups of mice on days 1, 7, 14, 21 and 28, respectively, to determine concentration of fasting blood glucose, and an area under curve, AUC, was calculated for each group based on the average value of 10 data."}}, "data": [{"compound": "CN(C)C(=N)N=C(N)N", "note": "[positive group, metformin]", "values": [{"measurement": "blood glucose concentration (glucose tolerance capability)", "setting": "[1]", "value": "significantly reduce the blood glucose concentration"}, {"measurement": "insulin concentration", "setting": "[2]", "value": "significantly improve the insulin concentrations"}, {"measurement": "fasting blood glucose level", "setting": "[3]", "value": "significantly reduced fasting blood glucose level"}]}]}
